Tested on: Cystic fibrosis transmembrane conductance regulator (Homo sapiens), P13569 [F508del]
Test: Corrector activity at 3xHA-tagged full-length human CFTR F508del mutant expressed in human CFBE41o- cells assessed as restoration of plasma membrane density of channel at 10 uM incubated for 24 hrs in presence of VX-809/N-(5-(4-fluorobenzyl)thiazol-2-yl)-2,5-dimethylfuran-3-carboxamide by ELISA relative to wild-type CFTR level
Assay type: cell membranes
Details: filed as activator

Chain of Cystic fibrosis transmembrane conductance regulator (Homo sapiens), P13569 [F508del] (P13569 as listed by the source): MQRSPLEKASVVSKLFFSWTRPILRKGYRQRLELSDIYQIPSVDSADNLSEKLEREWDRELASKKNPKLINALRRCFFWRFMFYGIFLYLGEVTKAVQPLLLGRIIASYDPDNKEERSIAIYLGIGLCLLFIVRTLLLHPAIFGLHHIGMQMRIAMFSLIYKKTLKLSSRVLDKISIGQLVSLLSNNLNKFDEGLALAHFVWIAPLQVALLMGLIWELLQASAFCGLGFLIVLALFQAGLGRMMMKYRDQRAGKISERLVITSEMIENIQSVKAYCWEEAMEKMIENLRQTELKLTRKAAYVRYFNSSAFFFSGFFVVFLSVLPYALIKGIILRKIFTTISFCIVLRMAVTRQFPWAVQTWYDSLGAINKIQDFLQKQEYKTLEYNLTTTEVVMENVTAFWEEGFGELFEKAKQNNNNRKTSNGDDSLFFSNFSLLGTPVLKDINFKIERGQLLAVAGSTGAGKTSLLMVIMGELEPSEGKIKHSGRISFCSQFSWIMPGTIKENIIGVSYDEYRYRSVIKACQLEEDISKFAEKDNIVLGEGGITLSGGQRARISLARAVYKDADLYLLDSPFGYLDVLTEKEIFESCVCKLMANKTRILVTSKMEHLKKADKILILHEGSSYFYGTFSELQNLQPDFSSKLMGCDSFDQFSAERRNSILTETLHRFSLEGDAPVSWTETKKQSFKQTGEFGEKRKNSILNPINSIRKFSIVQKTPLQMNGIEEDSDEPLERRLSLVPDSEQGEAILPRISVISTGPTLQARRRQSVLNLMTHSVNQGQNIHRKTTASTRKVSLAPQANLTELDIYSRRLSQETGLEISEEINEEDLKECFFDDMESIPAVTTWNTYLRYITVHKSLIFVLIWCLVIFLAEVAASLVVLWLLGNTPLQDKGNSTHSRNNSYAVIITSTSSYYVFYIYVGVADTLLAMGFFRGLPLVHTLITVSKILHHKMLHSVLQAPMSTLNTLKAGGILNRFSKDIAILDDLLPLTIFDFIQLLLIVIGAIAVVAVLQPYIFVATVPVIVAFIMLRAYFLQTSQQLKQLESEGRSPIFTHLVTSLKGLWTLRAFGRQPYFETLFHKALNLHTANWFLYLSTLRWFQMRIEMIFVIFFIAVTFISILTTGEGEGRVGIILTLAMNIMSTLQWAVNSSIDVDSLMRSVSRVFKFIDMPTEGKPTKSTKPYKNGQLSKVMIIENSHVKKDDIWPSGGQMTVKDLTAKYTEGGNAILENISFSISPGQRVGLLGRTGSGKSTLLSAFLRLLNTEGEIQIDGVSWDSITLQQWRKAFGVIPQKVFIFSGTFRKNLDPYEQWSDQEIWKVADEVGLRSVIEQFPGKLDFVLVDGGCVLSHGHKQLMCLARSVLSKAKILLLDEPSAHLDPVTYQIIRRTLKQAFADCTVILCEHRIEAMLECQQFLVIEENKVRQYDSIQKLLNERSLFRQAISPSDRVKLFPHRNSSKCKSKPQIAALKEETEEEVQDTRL

Cc1cc(=O)[nH]c(-n2nc(-c3ccccc3)cc2NC(=O)C2(c3ccc(Cl)cc3)CCCC2)n1 gave an Activity of 67%.
Work on Cc1nc(-n2nc(-c3ccccc3)cc2NC(=O)C2(c3ccc(Cl)cc3)CCCC2)[nH]c(=O)c1C yielded an Activity of 102%.
